Results taken from paper PMC5802362 (Amino acids, 2016).

Biological target: butyrylcholinesterase (Equus caballus, UniProt P81908)
Assay: Inhibition constant
Assay type: biochemical, equine
Conditions: BChE, 100 µM butyrylthiocholine, 2 % methanol, 25 °C, pH 7.5

butyrylcholinesterase, sequence (P81908 whole entry): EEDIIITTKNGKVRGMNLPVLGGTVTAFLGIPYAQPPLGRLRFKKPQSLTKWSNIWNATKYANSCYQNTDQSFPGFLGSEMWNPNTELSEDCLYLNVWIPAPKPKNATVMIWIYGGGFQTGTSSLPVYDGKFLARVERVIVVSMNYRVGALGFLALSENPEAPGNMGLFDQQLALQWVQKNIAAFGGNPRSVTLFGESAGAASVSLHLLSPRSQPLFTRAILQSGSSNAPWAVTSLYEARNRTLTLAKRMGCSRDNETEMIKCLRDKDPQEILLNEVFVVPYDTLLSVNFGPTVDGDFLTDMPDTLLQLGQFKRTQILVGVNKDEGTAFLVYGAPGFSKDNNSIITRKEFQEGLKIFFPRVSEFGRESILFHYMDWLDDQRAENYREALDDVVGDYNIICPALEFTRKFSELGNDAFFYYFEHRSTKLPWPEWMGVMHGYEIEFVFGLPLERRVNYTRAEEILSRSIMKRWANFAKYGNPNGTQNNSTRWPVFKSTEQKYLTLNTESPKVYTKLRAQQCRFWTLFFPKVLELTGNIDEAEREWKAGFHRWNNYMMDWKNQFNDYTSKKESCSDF

SMILES | Ki
O=C(N[C@@H](Cc1ccc(O)cc1)C(=O)O)OCC1c2ccccc2-c2ccccc21 [Fmoc-Tyr-O^−] | 307 ± 13 µM
CC(C)[C@H](NC(=O)OCC1c2ccccc2-c2ccccc21)C(=O)O [Fmoc-Val-O^−] | 313 ± 14 µM
CC(C)C[C@H](NC(=O)OCC1c2ccccc2-c2ccccc21)C(=O)O [Fmoc-Leu-O^−] | 115 ± 11 µM
O=C(N[C@@H](Cc1ccccc1)C(=O)O)OCC1c2ccccc2-c2ccccc21 [Fmoc-Phe-O^−] | 330 ± 15 µM
NCCCC[C@H](NC(=O)OCC1c2ccccc2-c2ccccc21)C(=O)O [Fmoc-Lys-O^−] | 150 ± 10 µM
O=C(N[C@@H](Cc1c[nH]c2ccccc12)C(=O)O)OCC1c2ccccc2-c2ccccc21 [Fmoc-Trp-O^−] | 193 ± 21 µM
CC[C@H](C)[C@H](NC(=O)OCC1c2ccccc2-c2ccccc21)C(=O)O [Fmoc-Ile-O^−] | 194 ± 13 µM
CC(C)C[C@H](NC(=O)OCc1ccccc1)C(=O)O [Cbz-Leu-O^−] | 1150 ± 130 µM
NCCCC[C@H](NC(=O)OCc1ccccc1)C(=O)O [Cbz-Lys-O^−] | 1540 ± 502 µM

Tested on: BChE and AChE
Assay: not given
Conditions: ref Saxena et al. 1997; cited from earlier work

SMILES | Difference in the KI value between BChE and AChE
CCN(CC)C(C)CN1c2ccccc2Sc2ccccc21 (centres unmarked) [ethopropazine] | 9000 fold

Tested on: not given
Assay: not given
Conditions: calculated with VOIDOO; ref Saxena et al. 1997; cited from earlier work

SMILES | van der Waals volume
CCN(CC)C(C)CN1c2ccccc2Sc2ccccc21 (centres unmarked) [ethopropazine] | 317.6 Å^3
